The values that follow are results of earlier work, collected in paper PMC9516332 (Frontiers in Oncology, 2022).

Where two headings read alike, the source gives them in different places.

Holding throughout (conditions): cited from earlier work
For data set [1], the target named is T1, panel of 255 wild-type kinases (Homo sapiens, UniProt O15530).
T1 sequence (O15530 1-556): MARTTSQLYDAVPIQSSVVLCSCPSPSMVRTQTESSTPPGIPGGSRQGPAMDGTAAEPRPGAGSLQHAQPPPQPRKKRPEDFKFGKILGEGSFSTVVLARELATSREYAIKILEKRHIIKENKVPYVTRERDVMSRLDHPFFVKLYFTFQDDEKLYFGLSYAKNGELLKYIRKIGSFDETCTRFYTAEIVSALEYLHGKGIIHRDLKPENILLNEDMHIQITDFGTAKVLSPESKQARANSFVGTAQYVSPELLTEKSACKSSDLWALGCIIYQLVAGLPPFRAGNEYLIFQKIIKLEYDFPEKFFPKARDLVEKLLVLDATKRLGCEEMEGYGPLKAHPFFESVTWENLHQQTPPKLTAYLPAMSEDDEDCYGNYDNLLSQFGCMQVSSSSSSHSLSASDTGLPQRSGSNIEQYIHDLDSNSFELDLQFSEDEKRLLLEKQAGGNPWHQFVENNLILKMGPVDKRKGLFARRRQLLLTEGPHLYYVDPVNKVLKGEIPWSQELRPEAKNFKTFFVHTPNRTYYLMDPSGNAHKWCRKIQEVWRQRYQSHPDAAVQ

Data set [2] has as its target panel of 255 wild-type kinases (Homo sapiens, UniProt P06239).
Data set [3] has as its target panel of 255 wild-type kinases (Homo sapiens, UniProt P29376).
The target in data set [4] is panel of 255 wild-type kinases (Homo sapiens, UniProt P45984).
The target in data set [5] is panel of 255 wild-type kinases (Homo sapiens, UniProt P53355).
Data set [6] deals with panel of 255 wild-type kinases (Homo sapiens, UniProt P78362).
Data set [7] concerns the target panel of 255 wild-type kinases (Homo sapiens, UniProt Q05397).
For data set [8], the target named is panel of 255 wild-type kinases (Homo sapiens, UniProt Q05655).
The target in data set [9] is panel of 255 wild-type kinases (Homo sapiens, UniProt Q86Z02).
For data set [10], the target named is T2, panel of 255 wild-type kinases (Homo sapiens, UniProt Q9H093).
T2 sequence (Q9H093 1-628): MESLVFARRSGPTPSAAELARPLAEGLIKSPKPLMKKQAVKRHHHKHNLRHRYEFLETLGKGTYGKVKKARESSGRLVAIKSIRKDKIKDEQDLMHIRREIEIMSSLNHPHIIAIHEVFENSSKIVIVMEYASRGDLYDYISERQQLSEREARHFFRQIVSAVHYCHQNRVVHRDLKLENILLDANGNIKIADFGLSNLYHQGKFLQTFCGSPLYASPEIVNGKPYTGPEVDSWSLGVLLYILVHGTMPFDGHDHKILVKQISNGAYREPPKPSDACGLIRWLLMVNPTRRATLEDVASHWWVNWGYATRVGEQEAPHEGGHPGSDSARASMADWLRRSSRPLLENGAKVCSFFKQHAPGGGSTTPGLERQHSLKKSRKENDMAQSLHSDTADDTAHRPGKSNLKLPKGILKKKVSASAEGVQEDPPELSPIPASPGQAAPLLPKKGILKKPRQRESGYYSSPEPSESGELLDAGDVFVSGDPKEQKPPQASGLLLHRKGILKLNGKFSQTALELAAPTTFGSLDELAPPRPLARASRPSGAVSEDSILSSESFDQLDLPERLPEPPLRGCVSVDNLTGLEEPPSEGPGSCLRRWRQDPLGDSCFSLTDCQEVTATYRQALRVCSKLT

Data set [11] addresses panel of 255 wild-type kinases (Homo sapiens, UniProt Q9H4A3).
[12] abbreviates: kinase PDK1, 1 µmol/L single concentration, ref DOI: 10.1158/1535-7163.MCT-18-0877.
Setting [13] is: kinase LCK, 1 µmol/L single concentration, ref DOI: 10.1158/1535-7163.MCT-18-0877.
Setting [14] is: kinase LTK, 1 µmol/L single concentration, ref DOI: 10.1158/1535-7163.MCT-18-0877.
The mark [15] stands for this setting: kinase JNK2, 1 µmol/L single concentration, ref DOI: 10.1158/1535-7163.MCT-18-0877.
[16] abbreviates: kinase DAPK1, 1 µmol/L single concentration, ref DOI: 10.1158/1535-7163.MCT-18-0877.
[17] abbreviates: kinase SRPK2, 1 µmol/L single concentration, ref DOI: 10.1158/1535-7163.MCT-18-0877.
Setting [18] is: kinase FAK, 1 µmol/L single concentration, ref DOI: 10.1158/1535-7163.MCT-18-0877.
Setting [19] is: kinase PKCδ, 1 µmol/L single concentration, ref DOI: 10.1158/1535-7163.MCT-18-0877.
Setting [20] is: kinase HIPK1, 1 µmol/L single concentration, ref DOI: 10.1158/1535-7163.MCT-18-0877.
[21] abbreviates: NuaK2, 1 µmol/L single concentration, ref DOI: 10.1158/1535-7163.MCT-18-0877.
The mark [22] stands for this setting: kinase WNK1, 1 µmol/L single concentration, ref DOI: 10.1158/1535-7163.MCT-18-0877.

On to `CC#CC(=O)N1CCC[C@H]1c1nc(-c2ccc(C(=O)Nc3ccccn3)cc2)c2c(N)nccn12` [acalabrutinib], for which the “%-inhibition at 1 µmol/L, PDK1” value in [1] (setting [12]) was -1.47%. Moreover, the “%-inhibition at 1 µmol/L, LCK” value in [2] (setting [13]) is 7%. The “%-inhibition at 1 µmol/L, LTK” value in data set [3] (setting [14]) was 10%. Moreover, the “%-inhibition at 1 µmol/L, JNK2” value in data set [4] (setting [15]) is recorded as -1.85%. In data set [5] (setting [16]), the “%-inhibition at 1 µmol/L, DAPK1” value is -17%. Also, the “%-inhibition at 1 µmol/L, SRPK2” value in data set [6] (setting [17]) was 0.686%. The “%-inhibition at 1 µmol/L, FAK” value in [7] (setting [18]) is listed as -1.39%. The “%-inhibition at 1 µmol/L, PKCδ” value in [8] (setting [19]) is reported as -9%. In addition, the “%-inhibition at 1 µmol/L, HIPK1” value in [9] (setting [20]) is -15%. For the same compound, in data set [10] (setting [21]), the “%-inhibition, NuaK2” value is on record as 3%. The “%-inhibition at 1 µmol/L, WNK1” value in data set [11] (setting [22]) was 5.36%.

As for `CCc1cc2c(cc1N1CCC(N3CCOCC3)CC1)C(C)(C)c1[nH]c3cc(C#N)ccc3c1C2=O` [alectinib], the “%-inhibition at 1 µmol/L, PDK1” value in [1] (setting [12]) is listed as -2.12%. Besides, in [2] (setting [13]), the “%-inhibition at 1 µmol/L, LCK” value is 20%. Besides, the “%-inhibition at 1 µmol/L, LTK” value in data set [3] (setting [14]) is reported as 99%. For the same compound, the “%-inhibition at 1 µmol/L, JNK2” value in [4] (setting [15]) is on record as -0.468%. The “%-inhibition at 1 µmol/L, DAPK1” value in data set [5] (setting [16]) was 58%. The “%-inhibition at 1 µmol/L, SRPK2” value in data set [6] (setting [17]) was 93%. In addition, the “%-inhibition at 1 µmol/L, FAK” value in [7] (setting [18]) is 17%. In data set [8] (setting [19]), the “%-inhibition at 1 µmol/L, PKCδ” value is given as 1.83%. In addition, the “%-inhibition at 1 µmol/L, HIPK1” value in data set [9] (setting [20]) is listed as 2.52%. Further, the “%-inhibition, NuaK2” value in data set [10] (setting [21]) is -1.06%. For the same compound, the “%-inhibition at 1 µmol/L, WNK1” value in data set [11] (setting [22]) is given as 6%.

As to `COc1cc(N2CCC(N3CCN(C)CC3)CC2)ccc1Nc1ncc(Cl)c(Nc2ccccc2P(C)(C)=O)n1` [brigatinib], the “%-inhibition at 1 µmol/L, PDK1” value in data set [1] is listed as 4.31%. For the same compound, the “%-inhibition at 1 µmol/L, LCK” value in data set [2] was 77%. For the same compound, the “%-inhibition at 1 µmol/L, LTK” value in data set [3] is given as 100%. Also, the “%-inhibition at 1 µmol/L, JNK2” value in [4] is 50%. Further, the “%-inhibition at 1 µmol/L, DAPK1” value in data set [5] is 83%. For the same compound, the “%-inhibition at 1 µmol/L, SRPK2” value in data set [6] is listed as 10%. In addition, the “%-inhibition at 1 µmol/L, FAK” value in data set [7] was 99%. In addition, in [8], the “%-inhibition at 1 µmol/L, PKCδ” value was 34%. In [9], the “%-inhibition at 1 µmol/L, HIPK1” value is reported as 11%. Also, the “%-inhibition, NuaK2” value in data set [10] is 98%. Also, the “%-inhibition at 1 µmol/L, WNK1” value in [11] was 5%.

Consider `Cc1cc(Nc2ncc(Cl)c(Nc3ccccc3S(=O)(=O)C(C)C)n2)c(OC(C)C)cc1C1CCNCC1` [ceritinib], for which, in data set [1] (setting [12]), the “%-inhibition at 1 µmol/L, PDK1” value is on record as -2.25%. Besides, the “%-inhibition at 1 µmol/L, LCK” value in data set [2] (setting [13]) was 6%. In data set [3] (setting [14]), the “%-inhibition at 1 µmol/L, LTK” value was 100%. The “%-inhibition at 1 µmol/L, JNK2” value in data set [4] (setting [15]) is recorded as 16%. The “%-inhibition at 1 µmol/L, DAPK1” value in data set [5] (setting [16]) is on record as 6%. Moreover, the “%-inhibition at 1 µmol/L, SRPK2” value in data set [6] (setting [17]) is 80%. Besides, in data set [7] (setting [18]), the “%-inhibition at 1 µmol/L, FAK” value is reported as 100%. The “%-inhibition at 1 µmol/L, PKCδ” value in [8] (setting [19]) was 5%. The “%-inhibition at 1 µmol/L, HIPK1” value in [9] (setting [20]) is 12%. The “%-inhibition, NuaK2” value in data set [10] (setting [21]) was 43%. For the same compound, in data set [11] (setting [22]), the “%-inhibition at 1 µmol/L, WNK1” value is listed as 4.45%.

For the compound `O=C(c1ccc(F)c(F)c1Nc1ccc(I)cc1F)N1CC(O)([C@@H]2CCCCN2)C1` [cobimetinib], the “%-inhibition at 1 µmol/L, PDK1” value in [1] (setting [12]) is listed as -1.65%. For the same compound, in [2] (setting [13]), the “%-inhibition at 1 µmol/L, LCK” value is reported as -3%. For the same compound, the “%-inhibition at 1 µmol/L, LTK” value in data set [3] (setting [14]) is on record as 2.85%. For the same compound, the “%-inhibition at 1 µmol/L, JNK2” value in [4] (setting [15]) was -2.51%. The “%-inhibition at 1 µmol/L, DAPK1” value in [5] (setting [16]) is listed as -4%. Also, the “%-inhibition at 1 µmol/L, SRPK2” value in [6] (setting [17]) was 3%. In addition, the “%-inhibition at 1 µmol/L, FAK” value in data set [7] (setting [18]) is on record as -4%. Further, in data set [8] (setting [19]), the “%-inhibition at 1 µmol/L, PKCδ” value was -2.12%. Also, the “%-inhibition at 1 µmol/L, HIPK1” value in data set [9] (setting [20]) was 6.62%. Moreover, the “%-inhibition, NuaK2” value in data set [10] (setting [21]) is on record as -10%. Further, the “%-inhibition at 1 µmol/L, WNK1” value in [11] (setting [22]) is listed as -0.124%.
